Assay: Human cadaver skin permeation study in modified Franz diffusion cells
Conditions: for delivery rate (average flux through cadaver skin), FIG. 2: ketoprofen, polar and non-polar derivatives; for transdermal delivery rate compared with ketoprofen: previous work by the inventor on non-polar ketoprofen derivatives; for 72 hr Cumulative Permeation: drug-in-adhesive formulation, human cadaver stratum corneum, Franz cells, 32° C.

SMILES | skin permeation over 72 hours (over 72 hours) | transdermal delivery rate compared with ketoprofen | 72 hr Cumulative Permeation | delivery rate (average flux through cadaver skin), FIG. 2 (cadaver skin in Franz cells) | delivery rate (average flux through cadaver skin), FIG. 1 (non-polar ketoprofen derivatives, approximate 84 hour time period, cadaver skin in Franz cells)
CC(C)OC(=O)C(C)c1cccc(C(=O)c2ccccc2)c1 (stereo not shown) [Ketoprofen Isopropyl Ester] | – | lower delivery rates than ketoprofen | 61.2 µg/cm² | – | –
CC(C(=O)OCC(O)CO)c1cccc(C(=O)c2ccccc2)c1 (stereo not shown) [Ketoprofen Monoglycerol Ester] | – | – | 214 µg/cm² | faster delivery rate than each of the non-polar ester derivatives tested | –
CCOC(=O)C(C)c1cccc(C(=O)c2ccccc2)c1 (stereo not shown) [Ketoprofen Ethyl Ester] | – | lower delivery rates than ketoprofen | 170 µg/cm² | – | –

Further lines, with some results ahead:

skin permeation over 72 hours (over 72 hours) | transdermal delivery rate compared with ketoprofen | 72 hr Cumulative Permeation | SMILES | delivery rate (average flux through cadaver skin), FIG. 2 (cadaver skin in Franz cells) | delivery rate (average flux through cadaver skin), FIG. 1 (non-polar ketoprofen derivatives, approximate 84 hour time period, cadaver skin in Franz cells)
about 1110 μg/cm^2 | – | – | CC(C(=O)O)c1cccc(C(=O)c2ccccc2)c1 (stereo not shown) [Ketoprofen, 2-(3-benzoyl-phenyl)-propionic acid] | highest delivery rate | –
– | lower delivery rates than ketoprofen | – | COC(=O)C(C)c1cccc(C(=O)c2ccccc2)c1 (stereo not shown) [methyl ester of ketoprofen] | – | faster delivery rate than each of the ethyl ester and isopropyl ester
